One assay has as its target T1, Human CARM1 (PRMT4) (Homo sapiens, UniProt Q86X55).
T1 construct: Flag-CARM1-His was eluted with 200 ug/ml FLAG peptide in buffer A; made in house; host or cells: HEK 293F cells infected with recombinant baculovirus (pFastBacMam)
T1 sequence (Q86X55 1-585 isoform Q86X55-1): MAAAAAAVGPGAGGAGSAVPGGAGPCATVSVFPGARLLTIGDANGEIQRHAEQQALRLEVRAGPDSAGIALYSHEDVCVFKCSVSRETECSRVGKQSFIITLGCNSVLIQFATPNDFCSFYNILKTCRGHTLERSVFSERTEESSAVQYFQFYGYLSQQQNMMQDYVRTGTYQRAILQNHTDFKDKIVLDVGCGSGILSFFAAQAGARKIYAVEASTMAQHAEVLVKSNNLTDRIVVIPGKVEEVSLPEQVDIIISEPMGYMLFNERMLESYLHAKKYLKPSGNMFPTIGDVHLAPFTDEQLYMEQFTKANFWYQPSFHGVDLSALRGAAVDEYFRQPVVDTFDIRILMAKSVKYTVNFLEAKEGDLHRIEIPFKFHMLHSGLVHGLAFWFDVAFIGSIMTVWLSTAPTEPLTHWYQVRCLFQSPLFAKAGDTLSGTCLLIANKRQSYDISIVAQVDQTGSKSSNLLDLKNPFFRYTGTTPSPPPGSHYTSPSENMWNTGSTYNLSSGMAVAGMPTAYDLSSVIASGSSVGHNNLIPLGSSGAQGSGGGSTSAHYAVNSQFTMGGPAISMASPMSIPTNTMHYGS
Description: CARM1 enzyme assay on peptide substrates (3H-SAM Flashplate). As to conditions: Biochemical assay; CARM1 0.25 nM, 3H-SAM 30 nM, peptide 250 nM; read-out: Biochem IC50.

Assay [1] concerns asymmetric di-methyl PABP1 in RKO cells. As to the kind of experiment: RKO methylation assay: In Cell Western (ICW) for asymmetric di-methyl PABP1 (PABP1me2a). As to conditions: Cellular-based (PABP1me2a) ICW (In Cell Western) assay. In short, it runs like this: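 In-cell western on compound-exposed RKO cells (48 hours): asymmetric di-methyl PABP1 detected by antibody at 800 nm, DNA content by DRAQ5 at 700 nm. Percent inhibition from signal ratios against DMSO (minimum) and 20 μM reference compound (maximum) wells; IC50 curves fitted from triplicates.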

The results in this text go back to patent publication US20170305922A1, “CARM1 INHIBITORS AND USES THEREOF” (Epizyme, Inc., priority 2014, published 2017).

Molecules are shown by their SMILES.

Turning to `CNC[C@@H](O)COc1ccc(Cl)c(-c2nc(-c3c(C)c(Br)nn3C)c(C)c(N3CC4(CC(OC)C4)C3)n2)c1` [Example 256], the concentration for half-maximal inhibition (IC50) came out at 3.96 nM at Human CARM1 (PRMT4) and 43.2 nM in assay [1] (Homo sapiens, RKO, 48 h).
Taken in the same sequence, the figures for `CNC[C@@H](O)COc1ccc(Cl)c(-c2nc(-c3c(C)noc3C)c(C)c(N3CC4=C(CN(C(=O)OC)CC4)C3)n2)c1` [Example 257] were 2.4 nM and 22.7 nM.
Take `CNC[C@@H](O)COc1ccc(Cl)c(-c2nc(-c3c(C)noc3C)c(C)c(N3Cc4ccc(N(C)C)nc4C3)n2)c1` [Example 258]: the IC50 is 1.83 nM at Human CARM1 (PRMT4) and 29.9 nM in assay [1] (Homo sapiens, RKO, 48 h).
In the same order, the values of `CNC[C@@H](O)COc1ccc(Cl)c(-c2nc(-c3c(C)noc3C)c(C)c(N3Cc4ccc(N5CC(F)C5)nc4C3)n2)c1` [Example 259] are 2.17 nM and 22.9 nM.
Regarding `CNC[C@@H](O)COc1ccc(Cl)c(-c2nc(-c3c(C)noc3C)c(C)c(N3CC4(CC(OC(C)C)C4)C3)n2)c1` [Example 260], the half-maximal inhibitory concentration (IC50) at Human CARM1 (PRMT4) was 5.95 nM; in assay [1] (48 hours), 45.5 nM.
With `CNC[C@@H](O)COc1ccc(Cl)c(-c2nc(-c3c(C)noc3C)c(C)c(N3Cc4cccnc4C3)n2)c1` [Example 262], the IC50 at Human CARM1 (PRMT4) turned out to be 2.34 nM; in assay [1] (Homo sapiens, RKO, 48 h) it was 32.6 nM.
In the same order, the values of `CNC[C@@H](O)COc1ccc(Cl)c(-c2nc(-c3c(C)noc3C)c(C)c(N3CC4(CCC(OC)C4)C3)n2)c1` (some centres unmarked) [Example 263] are 5.36 nM and 90.9 nM.
In the same order, the values of `CNC[C@@H](O)COc1ccc(Cl)c(-c2nc(-c3c(C)noc3C)c(C)c(N3CC4(CN(CCC(F)(F)F)C4)C3)n2)c1` [Example 264] are 4.11 nM and 51.9 nM.
In the same order, the values of `CNC[C@@H](O)COc1ccc(Cl)c(-c2nc(-c3c(C)c(Cl)nn3C)c(C)c(N3CC4(CN(C(=O)OC)C4)C3)n2)c1` [Example 265] are 4.2 nM and 87.7 nM.
Consider `CNC[C@@H](O)COc1ccc(Cl)c(-c2nc(-c3c(Br)cnn3C)c(C)c(N3CC4(CN(C(=O)OC)C4)C3)n2)c1` [Example 266], for which the IC50 at Human CARM1 (PRMT4) came out at 6.83 nM; in assay [1] (Homo sapiens, RKO, 48 h) it was 310 nM.
In the same order, the values of `CNC[C@@H](O)COc1ccc(Cl)c(-c2nc(-c3c(Br)cnn3C)c(C)c(N3CC4(CN(CC(F)(F)F)C4)C3)n2)c1` [Example 267] are 8.97 nM and 121 nM.
Taken in the same sequence, the figures for `CNC[C@@H](O)COc1ccc(Cl)c(-c2nc(-c3c(C)noc3C)c(C)c(N3CC4(CC(N5CCC5)C4)C3)n2)c1` [Example 268] were 1.26 nM and 1350 nM.
For the compound `CNC[C@@H](O)COc1ccc(Cl)c(-c2nc(-c3c(C)noc3C)c(C)c(N3CC4(CC(N5CC(OC)C5)C4)C3)n2)c1` [Example 269], the IC50 on Human CARM1 (PRMT4) turned out to be 0.8 nM; in assay [1] (Homo sapiens, RKO, 48 h), 355 nM.
In the same order, the values of `CNC[C@@H](O)COc1ccc(Cl)c(-c2nc(-c3c(C)noc3C)c(C)c(N3CC4(CC(N5CCOCC5)C4)C3)n2)c1` [Example 270] are 4.95 nM and 269 nM.
Taken in the same sequence, the figures for `CNC[C@@H](O)COc1ccc(Cl)c(-c2nc(-c3c(C)noc3C)c(C)c(N3CC4(CC(N(C)CC(F)(F)F)C4)C3)n2)c1` [Example 271] were 7.42 nM and 89.1 nM.
Taken in the same sequence, the figures for `CNC[C@@H](O)COc1ccc(Cl)c(-c2nc(-c3c(C)noc3C)c(C)c(N3CC4(C3)CC(OC)(OC)C4)n2)c1` [Example 272] were 5.43 nM and 79 nM.
For the compound `CNC[C@@H](O)COc1ccc(Cl)c(-c2nc(-c3c(C)noc3C)c(C)c(N3Cc4ccc(OCC(F)F)nc4C3)n2)c1` [Example 273], the 50% inhibitory concentration (IC50) on Human CARM1 (PRMT4) came to 2.26 nM; in assay [1] (Homo sapiens, RKO, 48 h) it was 61.9 nM.
Take `CNC[C@@H](O)COc1ccc(Cl)c(-c2nc(-c3c(C)c(Cl)nn3C)c(C)c(N3CC4(CC(OC(C)C)C4)C3)n2)c1` [Example 274]: the half-inhibitory concentration (IC50) at Human CARM1 (PRMT4) stood at 5.03 nM; in assay [1] (Homo sapiens, RKO, 48 h) it was 48.8 nM.
Taken in the same sequence, the figures for `CNC[C@@H](O)COc1ccc(Cl)c(-c2nc(-c3c(C)c(Br)nn3C)c(C)c(N3CC4(CC(OC(C)C)C4)C3)n2)c1` [Example 275] were 3.53 nM and 45 nM.
Taken in the same sequence, the figures for `CNC[C@@H](O)COc1ccc(Cl)c(-c2nc(-c3c(C)noc3C)c(C)c(N3CC4(C3)CC3(C4)OCCO3)n2)c1` [Example 276] were 4.92 nM and 75.7 nM.
Taken in the same sequence, the figures for `CNC[C@@H](O)COc1ccc(Cl)c(-c2nc(-c3c(C)noc3C)c(C)c(N3CC4(CN(CCC#N)C4)C3)n2)c1` [Example 277] were 8.24 nM and 1470 nM.
Take `CNC[C@@H](O)COc1ccc(Cl)c(-c2nc(-c3c(C)noc3C)c(C)c(N3CC4(CCC4F)C3)n2)c1` (some centres unmarked) [Example 278]: the 50% inhibitory concentration (IC50) was 4.11 nM at Human CARM1 (PRMT4) and 544 nM in assay [1] (Homo sapiens, RKO, 48 h).
In the same order, the values of `CNC[C@@H](O)COc1ccc(Cl)c(-c2nc(-c3c(C)noc3C)c(C)c(N3CC4(CC(N5CC(F)(F)C5)C4)C3)n2)c1` [Example 279] are 5.75 nM and 54.2 nM.
Taken in the same sequence, the figures for `CNC[C@@H](O)COc1ccc(Cl)c(-c2nc(-c3c(C)noc3C)c(C)c(N3CC4(CC(N5CC(F)C5)C4)C3)n2)c1` [Example 280] were 2.09 nM and 105 nM.
Taken in the same sequence, the figures for `CNC[C@@H](O)COc1ccc(Cl)c(-c2nc(-c3c(C)noc3C)c(C)c(N3CC4(CC(N(C)C5CC5)C4)C3)n2)c1` [Example 281] were 1.04 nM and 79.2 nM.
Regarding `CNC[C@@H](O)COc1ccc(Cl)c(-c2nc(-c3c(C)noc3C)c(C)c(N3CC4(CC(NC)C4)C3)n2)c1` [Example 282], the IC50 is 0.9 nM at Human CARM1 (PRMT4) and 2210 nM in assay [1] (Homo sapiens, RKO, 48 h).
In the same order, the values of `CNC[C@@H](O)COc1ccc(Cl)c(-c2nc(-c3c(C)noc3C)c(C)c(N3CC4(C3)CN(C(C)C(F)(F)F)C4)n2)c1` (some centres unmarked) [Example 283] are 5.67 nM and 48.4 nM.
In the same order, the values of `CNC[C@@H](O)COc1ccc(Cl)c(-c2nc(-c3c(C)c(Br)nn3C)c(C)c(N3CC4(CN(CC(F)F)C4)C3)n2)c1` [Example 284] are 2.36 nM and 39.2 nM.
In the same order, the values of `CNC[C@@H](O)COc1ccc(Cl)c(-c2nc(-c3c(C)c(Cl)nn3C)c(C)c(N3CC4(CN(CC(F)F)C4)C3)n2)c1` [Example 285] are 2.4 nM and 46.1 nM.
As for `CNC[C@@H](O)COc1ccc(Cl)c(-c2nc(-c3c(C)noc3C)c(C)c(N3CC(C#N)(COC)C3)n2)c1` [Example 286], the IC50 on Human CARM1 (PRMT4) was found to be 4.17 nM; in assay [1] (Homo sapiens, RKO, 48 h), 282 nM.
In the same order, the values of `CNC[C@@H](O)COc1ccc(Cl)c(-c2nc(-c3c(C)noc3C)c(C)c(N3CC4(CC(OCCC#N)C4)C3)n2)c1` [Example 287] are 4.46 nM and 69.1 nM.
In the same order, the values of `CNC[C@@H](O)COc1ccc(Cl)c(-c2nc(-c3c(C)noc3C)c(C)c(N3CC4(CCC4OC)C3)n2)c1` (some centres unmarked) [Example 288] are 3.86 nM and 234 nM.
Take `CNC[C@@H](O)COc1ccc(Cl)c(-c2nc(-c3c(C)noc3C)c(C)c(N3CC4(CC(N(C)CC(F)F)C4)C3)n2)c1` [Example 289]: the IC50 on Human CARM1 (PRMT4) came to 4.08 nM; in assay [1] (Homo sapiens, RKO, 48 h), 76 nM.
Regarding `CNC[C@@H](O)COc1ccc(Cl)c(-c2nc(-c3c(C)noc3C)c(C)c(N3CC4(CC(OCC(F)F)C4)C3)n2)c1` [Example 290], the half-maximal inhibitory concentration (IC50) at Human CARM1 (PRMT4) is 3.39 nM; in assay [1] (48 hours) it was 38.2 nM.
`CNC[C@H](O)COc1ccc(Cl)c(-c2nc(-c3c(C)noc3C)c(C)c(N3Cc4cccnc4C3)n2)c1` [Example 293]: the IC50 stood at 1.42 nM at Human CARM1 (PRMT4) and 155 nM in assay [1] (Homo sapiens, RKO, 48 h).
In the same order, the values of `CNC[C@@H](O)COc1ccc(Cl)c(-c2nc(-c3c(C)c(Cl)nn3C)c(C)c(N3CC4(CCCN(C(=O)OC)C4)C3)n2)c1` [Example 295] are 3.78 nM and 82.7 nM.
On to `CNC[C@@H](O)COc1ccc(Cl)c(-c2nc(-c3c(C)noc3C)c(C)c(N3CC4(CCCN(C(=O)OC)C4)C3)n2)c1` [Example 296], for which the concentration for half-maximal inhibition (IC50) on Human CARM1 (PRMT4) was found to be 6.4 nM; in assay [1] (Homo sapiens, RKO, 48 h) it was 137 nM.
Taken in the same sequence, the figures for `CNC[C@@H](O)COc1ccc(Cl)c(-c2nc(-c3c(C)c(Br)nn3C)c(C)c(N3CC4(CC(OCCC#N)C4)C3)n2)c1` [Example 297] were 2.83 nM and 39.4 nM.
Regarding `CNC[C@@H](O)COc1ccc(Cl)c(-c2nc(-c3c(C)c(Br)nn3C)c(C)c(N3CC4(CN(CCC#N)C4)C3)n2)c1` [Example 298], the 50% inhibitory concentration (IC50) at Human CARM1 (PRMT4) is 3.11 nM; in assay [1] (Homo sapiens, RKO, 48 h) it was 244 nM.
Taken in the same sequence, the figures for `CNC[C@@H](O)COc1ccc(Cl)c(-c2nc(-c3c(Cl)cnn3C)c(C)c(N3Cc4cnc(N5CC(OC)C5)nc4C3)n2)c1` [Example 299] were 2.94 nM and 17.6 nM.
